Laboratory results published in patent EP0097567B1, “Use of polyethoxylated alkyl phenols as antiseborrheic agents” (SANOFI S.A., priority 1982, dated 1984).

How the values were obtained:
lipogénèse sébacée = assay: Activity on sebaceous lipogenesis in vitro (incorporation of 14C-glucose into lipids of rat ear skin slices); format: cell-based, rats mâles Sprague Dawley; conditions: 4 h, pure products, read-out: Synthèse des lipides à partir de glucose (U-1^14C)Δ % témoin; for inhibition at 0.01 %: concentration 0,01 %; for inhibition at 0.001 %: concentration 0,001 %; for inhibition at 0.0025 %: concentration 0,0025 %; for inhibition at 0.005 %: concentration 0,005 %; for inhibition at 0.0005 %: concentration 0,0005 %
Text: Après sacrifice au chloroforme de rats mâles Sprague Dawley, d'un poids moyen de 210 g, les oreilles sont découpées aux ciseaux suivant des repères anatomiques fixes, puis leur côté ventral est soigneusement rasé. Après fixation à l'aide de rubans adhésifs sur une plaque de verre, le côté ventral de l'oreille est prélivé à l'aide d'un kératotome de Castroviejo dont l'épaisseur de coupe est réglée sur 3 mm. Ce prélèvement est ensuite coupé en petits carrés de 1 mm^2 avec une lame de rasoir et pesé avant introduction dans le tube servant à l'incubation.
L'incubation se fait dans 1,5 ml de Krebs-Ringer tamponné à pH 7,4 (tampon phosphate Sôrensen 1/15 M) et contenant 100 U/ml de pénicilline, 1 mg/ml de Streptomycine et 2 mmol de glucose non radioactif. Le produit, à la concentration à étudier, est préalablement dissous dans du propylèneglycol (concentration finale égale à 0,5%), puis introduit dans le milieu d'incubation. Les tubes servant à l'incubation sont maintenus dans un bain de glace, jusqu'à ce que tous les prélèvements soient effectués, puis 7,4kBq de glucose U_^14C (74-148 MBq/mmol) sont ajoutés dans chaque tube.
Pour chaque rat utilisé, une des oreilles sert à tester le produit antiséborrhéique potentiel, alors que l'autre sert de témoin.
Après 4 heures d'incubation à 37°C, le milieu d'incubation est éliminé, puis l'incubat subit 4 lavages de 3 mins avec agitation à l'aide de glucose non radioactif (2 g/I). Une fois la dernière eau de lavage éliminée, 3 ml de potasse alcoolique N sont rajoutés dans chaque tube contenant les glandes sébacées de la peau d'oreille. Les tubes sont bouchés et portés à 70°C pendant une nuit.
Après ce temps, les tubes sont refroidis et 3 ml d'acide chlorhydrique 2N sont introduits dans chaque tube. Les lipides présents correspondant aux glandes sébacées de chaque oreille sont alors extraits par 2 fois 4 ml d'hexane après agitation de 5 min. Après séparation des phases aqueuse et hexanique, 3,25 ml d'hexane à la première extraction et 4 ml à la deuxième sont prélevés et réunis dans une fiole de comptage contenant 10 ml de liquide de mélange scintillant.
Les fioles, après bouchage et- agitation, sont introduites dans un compteur à scintillation liquide préréglé sur le canal ^14C. Le temps de comptage de chaque fiole est de 4 min. Pour chaque fiole, le résultat exprimé en coups/minute (cpm) est transformé en fonction du poids de prélèvement en cpm/mg et l'inhibition (ou l'augmentation) de la synthèse des lipides est donnée par la variation % (A%) de l'incorporation en cpm/mg entre l'oreille témoin et l'oreille "traitée".
La moyenne des A% est effectuée et la valeur statistique des résultats est déterminée par le calcul du coefficient "t" de Student.

organes du flanc = assay: Local antiseborrheic activity (testosterone propionate-stimulated hamster flank organ, lipogenesis from 14C-glucose); format: in vivo, hamsters femelles Syrien doré; conditions: topical, dose de 2000 µg par jour
Experimental: Des hamsters femelles Syrien doré, d'un poids moyen de 110 g, sont tondus et rasés au niveau des organes du flanc qui se présentent sous l'aspect d'une tache sombre de 2 mm de diamètre environ, de part et d'autre de la colonne vertébrale. Sur un des organes, 1,25 µg de testostérone propionate est appliqué journellement sous un volume de 10 µl d'acétone, l'autre organe recevent la même quantité de testostérone associée au produit à étudier. Le traitement s'effectue 5 jours/7 jours pendant 21 jours.
A la fin de cette période, les animaux sont sacrifiés au chloroforme et les diamètres des taches pigmentées sont measurés à l'aide d'une régie graduée. La peau est prélevée, fixée côte épiderme vers le bas, sur une planche en bois. Le muscle peaucier et le tissu adipeux sont alors éliminés par rabotage au Kératotome de Castroviejo (épaisseur de coupe réglée à 3 mm), puis une biopsie de 10 mm de diamètre au niveau de chaque organe est réalisée à l'aide d'un trépan. Cette biopsie est débitée en carrés de 1 mm^2, puis pesée (±0,1 mg).
Le reste de manipulation: incubation, saponification, extraction, est identique à celui effectué dans le test de lipogénèse in vitro ci-dessus.

SMILES	inhibition at 0.01 % (lipogénèse sébacée)	inhibition at 0.001 % (lipogénèse sébacée)	inhibition at 0.0025 % (lipogénèse sébacée)	inhibition at 0.005 % (lipogénèse sébacée)	inhibition at 0.0005 % (lipogénèse sébacée)	inhibition at 0.00025 % (lipogénèse sébacée; concentration 0,00025 %)	inhibition at 0.025 % (lipogénèse sébacée; concentration 0,025 %)	inhibition de la lipogenèse sébacée par rapport au témoin (organes du flanc)
CCCCCCCCCc1ccc(OCCOCCOCCOCCOCCOCCO)cc1 [40 124, nonyl-4 phénoxy-17 pentaoxa-3,6,9,12,15 heptadécanol-1]	55%	6%	31%	42%				
CC(C)(C)CC(C)(C)c1ccc(OCCOCCOCCOCCOCCOCCO)cc1 [40 181]	67%	4%	5%	42%				
CC(C)(C)CC(C)(C)c1ccc(OCCOCCOCCOCCOCCOCCOCCOCCOCCOCCOCCOCCO)cc1 [40 182]		41%	69%	89%	19%			
CCCCCCCCCc1ccc(OCCOCCOCCOCCOCCOCCOCCOCCOCCOCCOCCOCCO)cc1 [compound 7886]		51%		84%	33%	6%	71%	100%
CCCCCCCCCc1ccc(OCCOCCOCCOCCOCCOCCOCCOCCOCCO)cc1 [compound 7948]	81%	10%	31%	61%				
